# Source: patent US20080194585A1, “Fungicidal Pyrazine Derivatives” (priority 2005, published 2008)
# Marks after values point to notes of the source that are not given here.
# Columns and labels:
# [1] = test system: Pythium aphanidermatum; assay: Test A: bluegrass pythium blight, preventive spray on bluegrass seedlings; settings: 40 ppm (*)
# [2] = test system: Rhizoctonia oryzae; assay: Test G: turf brown patch, preventive spray on creeping bent grass seedlings; settings: 40 ppm (*)
# Description: (the causal agent of turf brown patch) and incubated in a saturated atmosphere at 27° C. for 24 h, and then moved to a growth chamber at 27° C. for 5 days, after which disease ratings were made.
# [3] = test system: Plasmopara viticola; assay: Test D: grape downy mildew, spray after inoculation of grape seedlings; format: in vivo; settings: 40 ppm (*)
# Source text: Upon removal, disease ratings were made. […] A dash (-) indicates no test results.
# [4] = test system: Puccinia recondita f. sp. tritici; assay: Test K: wheat leaf rust, preventive spray on wheat seedlings; settings: 40 ppm (*)
# [5] = test system: fusarium graminearium; assay: Test I: wheat head scab, preventive spray on wheat seedlings; settings: 40 ppm (*)
# Description: (the causal agent of wheat head scab) and incubated in a saturated atmosphere at 20° C. for 72 h, and then moved to a growth chamber at 22° C. for 5 days, after which disease ratings were made.
# [6] = test system: Erysiphe graminis f. sp. tritici; assay: Test L: wheat powdery mildew, preventive spray on wheat seedlings; settings: 40 ppm (*)
# [7] = test system: Septoria tritici; assay: Test J: wheat leaf blotch, preventive spray on wheat seedlings; format: in vivo; settings: 40 ppm (*)
# Source text: A dash (-) indicates no test results.
# [8] = test system: Colletotrichum orbiculare; assay: Test B: cucumber Colletotrichum anthracnose, preventive spray on cucumber seedlings
# [9] = test system: Phytophthora infestans; assay: whole plant or invertebrate; format: in vivo; settings: 40 ppm (*)
# [10] = test system: Septoria nodorum; assay: Test H: wheat glum blotch, preventive spray on wheat seedlings; settings: 40 ppm (*)
# Description: (the causal agent of wheat glum blotch) and incubated in a saturated atmosphere at 20° C. for 48 h, and then moved to a growth chamber at 22° C. for 5 days, after which disease ratings were made.
# [11] = test system: Botrytis cinerea; assay: Test E: tomato botrytis, preventive spray on tomato seedlings; settings: 40 ppm (*)
Structure (SMILES),Test A disease control rating [1],Test G disease control rating [2],Test D disease control rating [3],Test K disease control rating [4],Test I disease control rating [5],Test L disease control rating [6],Test J disease control rating [7],Test B disease control rating ([8]; 40 ppm (*)),Test F disease control rating [9],Test H disease control rating [10],Test E disease control rating [11],Test B disease control rating ([8]; 200 ppm) [%]
CCC(C)Cn1c(-c2ccc(F)cc2Cl)c(Cl)nc(-n2nc(C)cc2C)c1=O (stereo not drawn) [compound 168],0* %,0* %,0* %,0* %,0* %,0* %,36* %,0* %,0* %,0* %,0* %,
CCC(C)Cn1c(-c2ccc(F)cc2Cl)c(Cl)nc(-n2cc(C)cn2)c1=O (stereo not drawn) [compound 169],0* %,0* %,0* %,92* %,0* %,75* %,100* %,98* %,0* %,97* %,99* %,
CC(C)Cn1c(-c2c(F)c(F)c(F)c(F)c2F)c(Cl)nc(-n2cccn2)c1=O [compound 171],0* %,95* %,0* %,96* %,0* %,99* %,52* %,,0* %,82* %,100* %,0
CC(C)Cn1c(-c2c(F)cccc2F)c(Cl)nc(-c2cccnc2)c1=O [compound 178],0* %,0* %,0* %,0* %,0* %,0* %,5* %,0* %,0* %,0* %,0* %,
CCCC(C)n1c(-c2c(F)cccc2F)c(Cl)nc(-n2cccn2)c1=O (stereo not drawn) [compound 180],0* %,94* %,0* %,100* %,0* %,95* %,98* %,66* %,0* %,99* %,99* %,
CCC(CC)n1c(-c2c(F)cccc2F)c(Cl)nc(-n2cccn2)c1=O [compound 181],0* %,100* %,0* %,100* %,0* %,98* %,100* %,51* %,0* %,99* %,99* %,
CCC(CC)Cn1c(-c2c(F)cccc2F)c(Cl)nc(-n2cccn2)c1=O [compound 183],0* %,81* %,0* %,99* %,0* %,92* %,100* %,0* %,0* %,89* %,100* %,
CCn1c(-c2c(F)cccc2F)c(Cl)nc(-n2cccn2)c1=O [compound 184],0* %,88* %,67* %,98* %,0* %,98* %,96* %,0* %,0* %,100* %,100* %,
C#CCn1c(-c2c(F)cccc2F)c(Cl)nc(-n2cccn2)c1=O [compound 186],0* %,67* %,0* %,100* %,0* %,90* %,92* %,16* %,0* %,100* %,99* %,
